Test results: the NIST ThermoML archive (doi:10.1021/acs.jced.8b00037)

Assay: molar heat capacity at saturation pressure
Conditions: Liquid, Vacuum adiabatic calorimetry

COC [dimethyl ether]
Conditions | molar heat capacity [J/K/mol]
133.47 K | 99.41
136.11 K | 98.99
138.75 K | 99.09
141.37 K | 98.75
143.97 K | 98.64
146.56 K | 98.99
149.14 K | 99.23
151.7 K | 98.99
154.26 K | 98.77
156.8 K | 98.65
159.33 K | 98.43
161.84 K | 98.67
164.35 K | 98.6
166.84 K | 98.46
169.32 K | 98.32
171.79 K | 98.39
174.26 K | 98.44
176.71 K | 98.47
179.15 K | 98.73
181.58 K | 98.78
184 K | 98.54
186.41 K | 98.8
188.82 K | 98.98
191.21 K | 98.9
193.6 K | 99.11
195.98 K | 98.99
198.36 K | 99.02
200.73 K | 99.09
203.08 K | 99.08
205.44 K | 99.32
207.79 K | 99.89
210.13 K | 100.15
212.46 K | 99.96
214.79 K | 100.15
217.12 K | 100.26
219.43 K | 100.09
221.74 K | 100.12
224.04 K | 100.21
226.34 K | 100.65
228.64 K | 101.1
230.92 K | 101.1
233.21 K | 101.41
235.49 K | 101.75
237.76 K | 101.68
240.03 K | 101.94
242.31 K | 102.15
244.57 K | 102.6
246.84 K | 102.48
249.11 K | 103.29
251.38 K | 102.81
253.64 K | 103
255.9 K | 103.44
258.16 K | 103.81
260.42 K | 104.08
262.68 K | 104.75
264.94 K | 105.51
267.2 K | 105.91
269.47 K | 106.42
271.72 K | 106.14
273.98 K | 106.27
276.24 K | 107.11
278.5 K | 108
280.77 K | 108.08
283.02 K | 108.35
285.29 K | 108.89
287.55 K | 109.42
289.82 K | 109.46
292.08 K | 110
294.36 K | 110.71
296.63 K | 110.49
298.9 K | 111.38
301.19 K | 111.57
303.45 K | 112.35
305.74 K | 112.73
308.02 K | 113.5
310.3 K | 114.89
312.58 K | 115.6
314.87 K | 116.12
317.16 K | 116.12
319.44 K | 117.62
323.96 K | 119.09
326.26 K | 120.03
328.57 K | 120.51
330.88 K | 121.43
333.2 K | 121.96
335.54 K | 122.78
337.89 K | 122.8
340.24 K | 124.08
342.62 K | 124.9
345 K | 125.19
